# Assay results: ChEMBL document CHEMBL1914392, “Comparative studies on interactions of baicalein, baicalin and scutellarin with lysozyme” (2011)
# Active and inactive are the calls of the source. The rule behind the calls is not given here.
# Assays:
# [1] = species: Gallus gallus; assay: Binding affinity to hen egg white lysozyme assessed as effective quenching constant at 310 K by Lineweaver-Burk plot analysis
# [2] = species: Gallus gallus; assay: Binding affinity to hen egg white lysozyme assessed as quenching rate constant at 298 K by Stern-Volmer plot analysis
# [3] = species: Gallus gallus; assay: Binding affinity to hen egg white lysozyme assessed as quenching rate constant at 310 K by Stern-Volmer plot analysis
# [4] = species: Gallus gallus; assay: Binding affinity to hen egg white lysozyme assessed as effective quenching constant at 298 K by Lineweaver-Burk plot analysis
# [5] = species: Gallus gallus; assay: Binding affinity to hen egg white lysozyme assessed as Stem-Volmer dynamic quenching constant at 298 K by Stern-Volmer plot analysis
# [6] = species: Gallus gallus; assay: Binding affinity to hen egg white lysozyme assessed as Stem-Volmer dynamic quenching constant at 310 K by Stern-Volmer plot analysis
# [7] = species: Gallus gallus; assay: Binding affinity to hen egg white lysozyme assessed as reduction in fluorescence intensity at 1 to 7 x 10^-6 M at 310 K
# [8] = test system: Staphylococcus aureus; assay: Antibacterial activity against Staphylococcus aureus in presence of 25 mg/L lysozyme; type: functional
# [9] = species: Gallus gallus; assay: Binding affinity to hen egg white lysozyme at 310 K
# [10] = species: Gallus gallus; assay: Binding affinity to hen egg white lysozyme at 298 K
# [11] = species: Gallus gallus; assay: Binding affinity to hen egg white lysozyme assessed as reduction in fluorescence intensity at 1 to 7 x 10^-6 M at 298 K
# [12] = test system: Staphylococcus aureus; assay: Antibacterial activity against Staphylococcus aureus; type: functional
# [13] = species: Gallus gallus; assay: Binding affinity to hen egg white lysozyme in presence of 2 x10'-3 M
SMILES,Kq [1],Kq [2] [×10¹³ L/mol/s],Kq [3],Kq [4] [×10⁵ L/mol],KSV [5] [×10⁵ L/mol],KSV [6],Activity [7],MIC50 [8] [µg/mL],K [9] [×10⁵ L/mol],K [10],Activity [11],MIC50 [12] [µg/mL],K [13]
CC(C)(CO)[C@@H](O)C(=O)NCCC(=O)O,5.27 ×10⁴ L/mol,1.02,8.03 ×10¹² L/mol/s,1.28,1.04,8.05 ×10⁴ L/mol,–,–,–,–,–,–,–
O=c1cc(-c2ccccc2)oc2cc(O)c(O)c(O)c12 [BAICALEIN],1.68 ×10⁵ L/mol,2.02,1.75 ×10¹³ L/mol/s,1.77,2.02,1.75 ×10⁵ L/mol,Active,350,2.14,3.39 ×10⁵ L/mol,Active,550,1.5 ×10⁸ Lmol
O=C(O)[C@H]1O[C@@H](Oc2cc3oc(-c4ccccc4)cc(=O)c3c(O)c2O)[C@H](O)[C@@H](O)[C@@H]1O [BAICALIN],1.16 ×10⁵ L/mol,1.25,1.14 ×10¹³ L/mol/s,1.74,1.25,1.14 ×10⁵ L/mol,Active,350,1.02,2.95 ×10⁴ L/mol,Active,450,1.17 ×10⁶ Lmol
O=C(O)[C@H]1O[C@@H](Oc2cc3oc(-c4ccc(O)cc4)cc(=O)c3c(O)c2O)[C@H](O)[C@@H](O)[C@@H]1O [SCUTELLARIN],1.15 ×10⁵ L/mol,1.63,1.55 ×10¹³ L/mol/s,1.25,1.63,1.55 ×10⁵ L/mol,Active,500,3.98,7.76 ×10⁵ L/mol,Active,650,2.24 ×10⁶ Lmol
